In patent US20260015360A1 (MOMA Therapeutics, Inc., priority 2023, published 2026):

Experiments:
[1] = target: T1, biotinylated Avi-POLΘ[2-894] (Homo sapiens, UniProt O75417); experiment: ATPase assay (ADP-Glo): POLΘ-mediated ATP hydrolysis; settings: read-out: Biochemical ATPase ADPGlo IC50
T1 construct: 1 nM biotinylated Avi-POLΘ[2-894]

DLD1 WT cells = experiment: DLD1 viability assay (CellTiter-Glo, 7 days), DLD1 WT; type: cell-based; settings: Homo sapiens, DLD-1, 168 h
DLD1 BRCA2 (−/−) cells = experiment: DLD1 viability assay (CellTiter-Glo, 7 days), DLD1 BRCA2 (−/−); type: cell-based; settings: Homo sapiens, DLD-1, 168 h, read-out: Viability IC50 (μM) DLD1 BRCA2 null

T1 sequence (O75417 2-894 limits assumed): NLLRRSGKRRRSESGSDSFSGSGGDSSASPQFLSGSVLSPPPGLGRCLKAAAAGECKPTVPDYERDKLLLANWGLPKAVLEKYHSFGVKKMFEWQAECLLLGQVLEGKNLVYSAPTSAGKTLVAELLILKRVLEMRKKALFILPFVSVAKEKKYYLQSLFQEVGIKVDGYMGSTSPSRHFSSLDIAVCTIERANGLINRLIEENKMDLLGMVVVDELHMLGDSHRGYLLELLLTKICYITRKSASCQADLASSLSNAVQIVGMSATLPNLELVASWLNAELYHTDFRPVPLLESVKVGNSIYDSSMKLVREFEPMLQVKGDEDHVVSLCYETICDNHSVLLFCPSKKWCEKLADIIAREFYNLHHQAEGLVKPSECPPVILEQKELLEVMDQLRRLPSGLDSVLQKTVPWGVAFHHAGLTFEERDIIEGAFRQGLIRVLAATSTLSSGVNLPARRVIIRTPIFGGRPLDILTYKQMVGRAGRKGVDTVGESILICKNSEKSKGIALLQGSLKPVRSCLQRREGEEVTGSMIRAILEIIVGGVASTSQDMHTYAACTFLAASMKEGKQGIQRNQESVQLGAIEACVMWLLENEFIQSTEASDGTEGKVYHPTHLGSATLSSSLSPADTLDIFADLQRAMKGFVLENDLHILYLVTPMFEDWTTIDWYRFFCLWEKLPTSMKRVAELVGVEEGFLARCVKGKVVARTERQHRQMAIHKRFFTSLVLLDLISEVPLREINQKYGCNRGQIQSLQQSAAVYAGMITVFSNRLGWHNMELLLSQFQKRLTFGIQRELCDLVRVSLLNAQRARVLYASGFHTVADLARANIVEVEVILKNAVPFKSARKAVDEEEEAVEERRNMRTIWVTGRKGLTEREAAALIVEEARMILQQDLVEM

Structure (SMILES)	IC50 [1] [nM]	IC50 (DLD1 WT cells) [µM]	IC50 (DLD1 BRCA2 (−/−) cells) [µM]
COc1cnc(Cl)cc1-c1cc(C)ncc1C(=O)Nc1nn2cc(C(=O)N[C@H]3C[C@@H](O)C3)nc2s1 [Example 308]	1 to 15	> 10	> 2
COc1cnc(Cl)cc1-c1cc(C)ncc1C(=O)Nc1nc2ncc(C3CCOCC3)nc2s1 [Example 512, 2′-chloro-5′-methoxy-6-methyl-N-(6-(tetrahydro-2H-pyran-4-yl)thiazolo[4,5-b]pyrazin-2-yl)-[4,4′-bipyridine]-3-carboxamide]	1 to 15	> 10	0.001 to 0.1
COc1cnc(Cl)cc1-c1cc(C)ncc1C(=O)Nc1nn2cc(C(=O)NC3CCC3)nc2s1 (racemic) [Example 288]	1 to 15	> 10	0.25 to 0.5
COc1cnc(Cl)cc1-c1cc(C)ncc1C(=O)Nc1nc2ncc([C@@H]3CC[C@H](CO)C3)nc2s1 [Example 499, 2′-chloro-N-(6-((1R,3S)-3-(hydroxymethyl)cyclopentyl)thiazolo[4,5-b]pyrazin-2-yl)-5′-methoxy-6-methyl-[4,4′-bipyridine]-3-carboxamide]	1 to 15	> 10	0.1 to 0.25
COc1cnc(Cl)cc1-c1cc(C)ncc1C(=O)Nc1nc2ncc(C3(OC)CCOCC3)nc2s1 [Example 373, 2′-chloro-5′-methoxy-N-(6-(4-methoxytetrahydro-2H-pyran-4-yl)thiazolo[4,5-b]pyrazin-2-yl)-6-methyl-[4,4′-bipyridine]-3-carboxamide]	1 to 15	–	–
COc1ccccc1-c1cc(C)ncc1C(=O)Nc1nc2nnc(Cl)cc2s1 [Example 117]	15 to 50	–	–
COc1cnc(Cl)cc1-c1cc(C)ncc1C(=O)Nc1nc2ncc(N3CC[C@H](CO)C3)nc2s1 [Example 500, (S)-2′-chloro-N-(6-(3-(hydroxymethyl)pyrrolidin-1-yl)thiazolo[4,5-b]pyrazin-2-yl)-5′-methoxy-6-methyl-[4,4'-bipyridine]-3-carboxamide]	15 to 50	–	–
COc1ccccc1-c1cc(C)ncc1C(=O)Nc1nc2ncc(C3CCCCO3)cc2s1 (single isomer, unassigned) [Example 106, (S or R)-4-(2-methoxyphenyl)-6-methyl-N-(6-(tetrahydro-2H-pyran-2-yl)thiazolo[4,5-b]pyridin-2-yl)nicotinamide]	15 to 50	–	–
COc1cnc(Cl)cc1-c1cc(C)ncc1C(=O)Nc1nn2cc(C(=O)N3CC[C@H](O)C3)nc2s1 [Example 36, (S)-2′-chloro-N-(6-(3-hydroxypyrrolidine-1-carbonyl)imidazo[2,1-b][1,3,4]thiadiazol-2-y1)-5′-methoxy-6-methyl-[4,4′-bipyridine]-3-carboxamide]	15 to 50	–	–
Cc1cc(C2=CCN(C(=O)OC(C)(C)C)CC2)c(C(=O)Nc2nc3ncc(-c4ccncc4)nc3s2)cn1 [Example 139]	150 to 900	–	–
COc1cnc(Cl)cc1-c1cc(C)ncc1C(=O)Nc1nc2ncc(N3CCO[C@H](C)[C@H]3C)nc2s1 (single isomer, unassigned) [Example 402, 2′-chloro-N-(6-((2R or S,3R or S)-2,3-dimethylmorpholino)thiazolo [4,5-b]pyrazin-2-yl)-5′-methoxy-6-methyl-[4,4′-bipyridine]-3-carboxamide]	1 to 15	–	–
COc1cnc(Cl)cc1-c1cc(C)ncc1C(=O)Nc1nc2ncc(N3CCCC3)nc2s1 [Example 484, 2′-chloro-5′-methoxy-6-methyl-N-(6-(pyrrolidin-1-yl)thiazolo[4,5-b]pyrazin-2-yl)-[4,4′-bipyridine]-3-carboxamide]	1 to 15	–	–
COc1cnc(Cl)cc1-c1cc(C)ncc1C(=O)Nc1nc2ncc([C@H]3CC[C@@H](C#N)CC3)nc2s1 [Example 451, 2′-chloro-N-(6-((1s,4s)-4-cyanocyclohexyl)thiazolo[4,5-b]pyrazin-2-yl)-5′-methoxy-6-methyl-[4,4′-bipyridine]-3-carboxamide]	1 to 15	–	–
